pIC50: −log10 of the molar value.
Tests used:
[1] = target: T1, human KIF18A (residues 1-467) (Homo sapiens, UniProt Q8NI77); assay: KIF18A MT-ATPase motor activity, ADP-Glo luminescence assay (Example 19); format: biochemical
T1 construct: human KIF18A (residues 1-467, 4 nM); made in house
Description: (§1) A trio of KIF18A inhibitors (Compound C9, Compound C11, and Compound C12) were synthesized and tested in vitro for KIF18A inhibitory activity. […] The values represent mean t SEM from three independent experiments. […] As in vivo studies in mice were planned, the mouse KIF18A inhibitory effects of Compound C9 and C12 were assayed.
(§2) KIF18A compounds C9, C11, C12 were 2-fold serially diluted over a 22-point concentration range in DMSO using 384-well plate (Corning). Recombinant truncated kinesin motor proteins (human KIF18A (residues 1-467, 4 nM), mouse KIF18A (residues 1-467, 4 nM)) were expressed and purified. ADP-Glo luminescence assay (Promega) was used to measure the MT-ATPase motor activity. Porcine brain MTs were procured from Cytoskeleton Inc. Compounds were pre-incubated for <30 min in reaction buffer (15 mM Tris, pH 7.5, 10 mM MgCl2, 0.01% Pluronic F-68, 2% DMSO, 1 μM paclitaxel, 30 μg/mL MTs) with motor proteins at concentrations indicated above, 30 μM ATP was added to initiate the enzymatic reaction for 15 min at room temperature (RT). ADP-Glo reagents were added according to manufactures protocol, the luminescence intensity proportional to ADP present was measured using an EnVision plate reader (Perkin Elmer). Raw luminescence signal data was normalized to POC (percentage of positive control) and then Activity (%) was computed [POC=100×(sample signal−negative control signal)+(positive control signal−negative control signal). Activity (%)=POC−100]. The positive control (enzyme+substrate) and negative control (substrate alone) had equivalent concentrations of DMSO. Curve-fitting and IC50 values were determined by 4-parameter non-linear regression equation (variable slope) using GraphPad Prism 7.05 (GraphPad Software).

[2] = target: T2, mouse KIF18A (residues 1-467) (Mus musculus, UniProt Q91WD7); assay: as above; format: biochemical
T2 construct: mouse KIF18A (residues 1-467, 4 nM); made in house
Description: as §1, §2

[3] = Tolerability (body weight, blood counts) in tumor-bearing nude mice; format: in vivo, mouse; settings: 18 days
Description: Female athymic nude mice were injected with 5×10^6 cells in 0.1 mL subcutaneously in the right flank. After tumors were established (average tumor volume of 150 mm^3), animals were randomized into 4 treatment groups (vehicle alone, KIF18A inhibitor at 10, 30, or 100 mg/kg) with 10 animals per group and treated orally once per day (PO, QD) starting on day 25 post-tumor implantation. Tumor measurement was calculated from the length, width and height of tumors measured with a PRO-MAX electronic digital caliper (Japan Micrometer Mfg. Co. LTD). The tumor volume was calculated as [L×W×H] and expressed in mm^3. Tumor volume and animal body weight measurements were determined twice per week (study start day 25, study end day 45). A single mouse was removed from the study (KIF18A inhibitor 30 mg/kg group) due to abdominal distention, a finding likely unrelated to compound.
Data was plotted using GraphPad Prism software (V7.0.4), tumor volume and body weight data are expressed as means plus or minus standard error of the mean and plotted as a function of time. Statistical significance of observed differences between growth curves were calculated using SLACR package (v.1.0.3). Statistical significance for tumor regressions were performed by paired Student's t-Test on the initial and final tumor volumes with significant tumor regression p-values (***p≤0.0001) for all three KIF18A inhibitor treatment groups. KIF18A inhibitor dose 10 mg/kg (81% regression, 5 of 10 tumor-free), 30 mg/kg (98% regression, 8 of 9 tumor-free), and 100 mg/kg (97% regression, 7 of 10 tumor-free).
Female athymic nude mice were injected with 5×10^6 OVCAR-8 cells in 0.1 mL subcutaneously in the right flank. […] Tumor volume and animal body weight measurements were determined twice per week (study start day 25, study end day 47). Tumor measurements, formulas, and regression analysis as described above for FIGS. 5A-5B. Data was plotted using GraphPad Prism software (V7.0.4), tumor volume and body weight data are expressed as means plus or minus standard error of the mean and plotted as a function of time. Statistical significance of observed differences between growth curves were calculated using SLACR package (v.1.0.3).
(§3) Data was graphed using GraphPad Prism 7.05.
(§4) Tumor volume and body weight assessment performed as described above. After the final dose on day 36, plasma pharmacokinetic analysis was performed as described above. All data analysis was performed as described above.
(§5) Animals were dosed IP daily with vehicle alone, C9 (50 or 100 mg/kg), or C12 (25 or 50 mg/kg). […] Tumor volume and body weight assessment performed as described above. After the final dose on day 46, plasma pharmacokinetic analysis was performed as described above except blood was drawn by retro-orbital bleed method.

OVCAR-8 tumors = assay: OVCAR-8 Tumor Xenograft Efficacy Study (IP); format: in vivo, mouse
Description: as §5

[4] = Terminal plasma pharmacokinetic analysis in tumor-bearing mice; format: in vivo, mouse
Description: as §3, §4, §5

MDA-MB-157 cells = assay: pH3 and PCM spot EC50 determination; settings: pH3 and PCM spot EC50 values
OVCAR-3 tumors = assay: OVCAR-3 Tumor Xenograft Efficacy Study (IP); settings: 25 mg/kg IP once daily for 18 consecutive days
Description: Mice were injected with human OVCAR-3 cells (5.0×10^6) subcutaneously in the right flank. Animals with established tumors were randomized into four groups (n=10 per group) with average tumor volume of 130 mm^3. […] Treatment started on day 24 post-tumor implantation and treatment terminal on day 42. Tumor volumes and body weights were recorded twice per week using a digital caliper and analytical lab scale, respectively. […] The percentage of tumor growth inhibition (% TGI) was calculated as % TGI relative to vehicle control: % TGI=100−[(Treated−Initial Volume)/(Control−Initial Volume)×100]. The percentage of tumor regression (% TR) was calculated as % TR compared final tumor volume to the initial tumor volume: % TR=100−[(Final Volume)/(Initial Volume)×100]. Data was graphed using GraphPad Prism 7.05. Statistical analysis was performed on treatment groups for tumor growth and blood counts using repeated measures ANOVA and one-way ANOVA, respectively, followed by Dunnett's multiple comparisons test.

[5] = tested on: human bone marrow mononuclear cells (HBMNC); assay: BrdU cell cycle analysis and live cell count in normal cells; format: cell-based
Description: (§6) The effect KIF18A inhibitor treatment has on proliferation of normal somatic cells (e.g., not neoplastic cells) was tested by assaying proliferation of human bone marrow mononuclear cells (HBMNCs), primary human foreskin fibroblast cells (hFSF) and human mammary epithelial cells via a 5-bromo-2′-deoxyuridine (BrdU) incorporation assay in which BrdU, an analog of the nucleoside thymidine, is used to identify proliferating cells (Payton et. al., Molecular Cancer Therapeutics, 17(12):2575-85 (2018)). Cells were analyzed on BD LSRFortessa flow cytometer using BD FACSDiva software (BD Biosciences), and post-acquisition data analysis was performed using FSC-Express software (De Novo). The percentage of BrdU positive gated events on the stacked DNA content histograms were reported.
To further examine the effects of KIF18A inhibitor treatment on HBMNC, two normal donors were assessed using the BrdU coupled cell cycle assay and cell count assay (96 hours) was. […] In particular, the amount of BrdU-stained proliferating cells treated with Ispinesib, paclitaxel, or a CDK 4/6 inhibitor (palbociclib) was far less than the amount of vehicle control-treated BrdU-stained cells. […] KIF18A inhibitor treatment was also analyzed for impact on live cell count. After 96 hours, live cells were counted by Vi-CELL XR Cell Viability Analyzer (Beckman Coulter).
To investigate whether KIF18A inhibitors could circumvent this normal cell toxicity barrier, we examined the effects of Compounds C9 and C11 on a panel of cycling normal somatic cell types. First, we treated human bone marrow mononuclear cells (HBMNC) from two normal donors with DMSO, Compound C9 and C11 at 1 μM, ispinesib at 0.05 μM, paclitaxel at 0.05 μM, or palbociclib at 1 μM for 48 h (cell cycle) or 96 h (cell growth).
BrdU and cell cycle analysis. Human bone marrow mononuclear cells (HBMNCs) from two normal donors (#37612, #37534) were cultured for 8 days in defined media as previously described (Payton et al 2018). HBMNCs were seeded in 24-well plate at 1.2×10^6 cells per well in duplicate plates. Cells were treated with DMSO, Compound C9 (1 μM), Compound C11 (1 μM), ispinesib (0.05 μM), paclitaxel ([…]), or palbociclib (1 μM). Cells were collected at 48 h (cell cycle) and 96 h (cell growth). The first set of plates were pulsed with BrdU for 2 h and processing for BrdU cell cycle analysis as previously described (Payton et al 2018). Cells were analyzed on BD LSRFortessa flow cytometer running BD FACSDiva software and post-acquisition data analysis was performed using FSC-Express software. Data was reported for the percentage of BrdU and subG1 gated populations. The second set of plates were collected, and cells counted using Vi-CELL XR Cell Viability Analyzer (Beckman Coulter).

[6] = tested on: human foreskin fibroblast (hFSF) cells; assay: BrdU incorporation assay in normal cells; format: cell-based; settings: 48 hours
Description: as §6

[7] = tested on: human mammary epithelial cells (HMEC); assay: BrdU incorporation assay in normal cells; format: cell-based; settings: 48 hours
Description: as §6

[8] = tested on: human bone marrow mononuclear cells (HBMNC); assay: BrdU cell cycle analysis and live cell count in normal cells; format: cell-based; settings: 96 h; ispinesib 0.05 μM, paclitaxel 0.05 μM, palbociclib 1 μM
[9] = OVCAR-3 study, C9 100 mg/kg, C12 25 mg/kg IP daily

T1 sequence (Q8NI77 1-467): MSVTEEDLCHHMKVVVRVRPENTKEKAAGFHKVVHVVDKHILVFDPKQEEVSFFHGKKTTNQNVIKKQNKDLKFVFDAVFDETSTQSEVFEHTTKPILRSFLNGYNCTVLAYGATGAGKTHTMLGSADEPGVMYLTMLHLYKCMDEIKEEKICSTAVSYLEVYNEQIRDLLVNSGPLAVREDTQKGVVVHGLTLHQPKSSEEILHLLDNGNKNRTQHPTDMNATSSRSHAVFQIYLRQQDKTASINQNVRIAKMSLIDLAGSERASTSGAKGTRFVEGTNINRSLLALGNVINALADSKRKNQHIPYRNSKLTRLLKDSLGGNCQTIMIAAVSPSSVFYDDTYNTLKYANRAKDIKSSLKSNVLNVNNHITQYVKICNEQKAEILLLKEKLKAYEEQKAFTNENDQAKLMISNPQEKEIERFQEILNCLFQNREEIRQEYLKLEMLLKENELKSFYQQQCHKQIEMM
T1 sequence (P02550 whole entry partner, the tested form may be a part): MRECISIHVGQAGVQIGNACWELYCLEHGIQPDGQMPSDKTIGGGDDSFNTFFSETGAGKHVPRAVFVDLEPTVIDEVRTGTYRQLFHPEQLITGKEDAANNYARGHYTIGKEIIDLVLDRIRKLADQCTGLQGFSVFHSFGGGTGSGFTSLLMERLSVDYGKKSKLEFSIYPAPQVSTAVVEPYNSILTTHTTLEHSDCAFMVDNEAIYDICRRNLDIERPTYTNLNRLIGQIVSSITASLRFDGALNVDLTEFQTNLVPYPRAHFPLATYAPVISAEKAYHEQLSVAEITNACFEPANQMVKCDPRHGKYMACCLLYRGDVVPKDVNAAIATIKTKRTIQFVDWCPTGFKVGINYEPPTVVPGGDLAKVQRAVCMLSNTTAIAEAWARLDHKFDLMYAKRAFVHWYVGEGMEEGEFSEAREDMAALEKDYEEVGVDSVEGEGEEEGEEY
T1 sequence (P02554 whole entry partner, the tested form may be a part): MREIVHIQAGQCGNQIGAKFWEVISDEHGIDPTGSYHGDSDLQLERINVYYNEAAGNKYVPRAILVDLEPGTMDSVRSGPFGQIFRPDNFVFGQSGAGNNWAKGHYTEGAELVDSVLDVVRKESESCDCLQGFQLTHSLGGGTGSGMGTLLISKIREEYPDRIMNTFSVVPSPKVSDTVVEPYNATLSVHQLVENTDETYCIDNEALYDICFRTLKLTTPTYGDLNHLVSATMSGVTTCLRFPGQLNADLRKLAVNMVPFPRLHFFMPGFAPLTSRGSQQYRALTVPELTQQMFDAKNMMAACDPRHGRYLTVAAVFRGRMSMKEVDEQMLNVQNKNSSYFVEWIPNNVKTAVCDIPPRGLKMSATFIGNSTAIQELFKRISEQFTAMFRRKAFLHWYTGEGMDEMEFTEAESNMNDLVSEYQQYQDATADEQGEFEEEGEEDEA
T2 sequence (Q91WD7 1-467): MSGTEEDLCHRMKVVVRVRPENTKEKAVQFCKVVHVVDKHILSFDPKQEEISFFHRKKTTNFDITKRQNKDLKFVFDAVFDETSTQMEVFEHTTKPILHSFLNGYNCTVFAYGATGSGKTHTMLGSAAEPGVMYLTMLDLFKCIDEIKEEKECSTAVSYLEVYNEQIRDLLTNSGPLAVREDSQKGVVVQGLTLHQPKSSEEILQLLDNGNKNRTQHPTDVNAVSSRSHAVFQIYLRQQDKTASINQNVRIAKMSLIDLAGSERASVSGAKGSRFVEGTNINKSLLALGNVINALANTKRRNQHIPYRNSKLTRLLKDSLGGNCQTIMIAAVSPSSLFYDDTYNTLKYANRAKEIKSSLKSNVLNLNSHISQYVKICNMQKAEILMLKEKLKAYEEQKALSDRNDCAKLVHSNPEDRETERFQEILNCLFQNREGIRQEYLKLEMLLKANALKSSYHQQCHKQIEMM
T2 sequence (P02550 whole entry partner, the tested form may be a part): as the sequence (P02550 whole entry partner, the tested form may be a part) above
T2 sequence (P02554 whole entry partner, the tested form may be a part): as the sequence (P02554 whole entry partner, the tested form may be a part) above

Structure (SMILES)	pIC50 [1]	pIC50 [2]	tolerability (body weight) ([3]; CAL-51 study, C9 100 mg/kg, C12 25 mg/kg IP daily)	monocyte count ([3]; OVCAR-3 study, 25 mg/kg IP daily, p=0.043)	body weight loss or changes in blood counts [3, 9]	tolerability [3, 9]	tolerability (body weight) ([3]; OVCAR-8 study, C9 50 or 100 mg/kg, C12 25 or 50 mg/kg IP daily)	tumor regression (OVCAR-8 tumors; 25 mg/kg IP once daily for 18 consecutive days)	tumor regression (OVCAR-8 tumors; 50 mg/kg IP once daily for 18 consecutive days)	plasma AUC in OVCAR-8 study relative to the other efficacy studies ([4]; at matched doses)	AUC ([4]; nude, mouse, plasma, OVCAR-3 study, 25 mg/kg IP, after the final dose)	improvement of cell potency relative to a control compound (MDA-MB-157 cells)	tumor regression (OVCAR-3 tumors)	cell cycle DNA content profiles ([5]; 48 h, C9, C11, palbociclib 1 μM, ispinesib 0.05 μM, paclitaxel)	BrdU incorporation (cell cycle analysis) relative to DMSO/vehicle control ([5]; two normal donors, 48 h, C9, C11, palbociclib 1 μM, ispinesib 0.05 μM, paclitaxel)	BrdU incorporation (cell cycle analysis) relative to DMSO/vehicle control ([5]; two normal donors, 48 h, C9, C11, palbociclib 1 μM, ispinesib 0.05 μM, paclitaxel, listed as ispinesib)	live cell count relative to vehicle control ([5]; two normal donors, 96 hours)	BrdU incorporation relative to DMSO treated cells [6]	BrdU incorporation relative to DMSO treated cells [7]	reduction in cell growth [8]
C[C@@H]1CN(c2cccc(NC(=O)c3ccc(NS(=O)(=O)CCO)cc3N3CCC4(CC3)CC4)n2)CCO1 [Compound C12, (R)-4-((2-Hydroxyethyl)sulfonamido)-N-(6-(2-methylmorpholino)pyridin-2-yl)-2-(6-azaspiro[2.5]octan-6-yl)benzamide]	7.40	7.41	well-tolerated	decrease on monocytes	no evidence of body weight loss or changes in blood counts	well-tolerated	well-tolerated	19%	75%	2.8 fold	53 µM·h	> 120 fold	46%	–	–	–	–	–	–	–
Cc1ccc(C(=O)N(CCCN)[C@@H](c2nc3cc(Cl)ccc3c(=O)n2Cc2ccccc2)C(C)C)cc1 [Ispinesib, reference compound]	–	–	–	–	–	–	–	–	–	–	–	–	–	marked effects on cell cycle DNA content profiles	far less	clearly cytotoxic	lower cell count	decrease in BrdU incorporation	decrease in BrdU incorporation	~88%

Source: US20230151432A1, “KIF18A INHIBITORS FOR TREATMENT OF NEOPLASTIC DISEASES” (AMGEN INC., priority 2020, published 2023)
